Data: ChEMBL document CHEMBL1147737, “4-(3'alpha15'beta-dihydroxy-5'beta-estran-17'beta-yl)furan-2-methyl alcohol: an anti-digoxin agent with a novel mechanism of action” (2006)
Calls of active or inactive are those of the source. The rule behind the calls is not given here.

What was measured:
[1] = system: NT2; experiment: Inhibition of digoxin-induced transferrin accumulation in NT2 cells; format: functional, cell-based; details: Homo sapiens
[2] = species on record: Cavia porcellus; experiment: Inhibition of 1 uM digoxin-induced increase in the force of contraction in guinea pig papillary muscle at 10 uM; format: functional
[3] = species on record: Cavia porcellus; experiment: Inhibition of digoxin-induced arrhythmias in guinea pig papillary muscle; format: functional
[4] = system: Sodium/potassium-transporting ATPase (Cavia porcellus); experiment: Binding affinity to CS receptor on Na+-ATPase; details: filed as antagonist
[5] = system: Sodium/potassium-transporting ATPase (Cavia porcellus); experiment: Binding affinity to CS receptor on K(+)-ATPase; details: filed as antagonist

Activity [4]: Antagonist
Activity [5]: Antagonist
Compound: C[C@]12CC[C@H]3[C@@H](CC[C@@H]4C[C@H](O)CC[C@@H]43)[C@@H]1[C@H](O)C[C@@H]2c1coc(CO)c1
Activity [1]: Active
Activity [2]: Active
Activity [3]: Active
